Assays:
Type in all cases: physicochemical
[1] = Influence of pH on the stability of MG in solution and coloring of the MG solution
Description: Influence of pH on the stability of MG in a solution and the coloring of an MG solution were investigated. Adjustment of the solution to each pH was performed using 0.1 M phosphate buffer and phosphoric acid and NaOH as necessary. The MG concentration in the solution was 0.1%. MG solutions of each pH were prepared and left at 60° C. for 4 days, and then the amount of MG and the absorbance (400 nm) of the solutions were measured. The MG residual rate was determined by comparing with the amount at the start of the experiment.

[2] = Effect of 4-DG ratio on stabilizing MG and on coloring of the MG solution; details: MG 0.1%, 4-DG ratio 1.5 to 11.1 parts by weight
Description: The effect of 4-DG on stabilizing MG was investigated. Solutions at pH 7 (in 0.1M phosphate buffer) containing various ratios of 4-DG to MG (0.1%) were prepared, and the amount of MG after standing at 60° C. for 57 days was measured. Then, the MG residual rate was determined. Additionally, the absorbance (400 nm) of the solution was measured over time during the experiment period.

[3] = Influence of bases constituting nucleic acids on the stability of MGA (residual rate); details: 0.1% MGA, pH 7.5, 60° C. for 3 days; adenine 0.01%, guanine, cytosine, uracil, thymine 0.2%
Description: The influence of bases (adenine, guanine, cytosine, uracil, and thymine) constituting nucleic acids on the stability of MGA and MG was investigated. A 0.1% MGA solution (adjusted to pH 7.5 with 0.1M phosphate buffer) each containing adenine (0.01%), guanine (0.2%), cytosine (0.2%), uracil (0.2%), or thymine (0.2%) was prepared. A 0.1% MG solution (adjusted to pH 7.5 with 0.1M phosphate buffer) each containing adenine (0.01%), cytosine (0.2%), uracil (0.2%), or thymine (0.2%) was prepared. After these solutions were left at 60° C. for 3 days for MGA, 20 days and 49 days for MG, the amounts of MGA and MG were measured to determine the residual rate.

[4] = weakly acidic to weakly alkaline conditions, 60° C. for 4 days

| SMILES | MG residual rate ([1]; 0.1% MG, 0.1 M phosphate buffer, pH 5.4 to 8.8, 60° C. for 4 days) [%] | absorbance (400 nm) of the solution ([1]; 0.1% MG, pH 5.4 to 8.0, 60° C. for 4 days) | coloring of the MG solution [1, 4] | stability of MG [1, 4] | residual rate of MG ([2]; pH 7, 60° C. for 57 days) [%] | absorbance (400 nm) of the solution ([2]; pH 7, 60° C., 57th day) | stabilizing effect on MGA [3] |
| --- | --- | --- | --- | --- | --- | --- | --- |
| COC1=C(NCC(=O)O)C[C@@](O)(CO)CC1=O [MG, mycosporine-glycine] | ≥ 88 | ≤ 0.018 | suppressed | stabilized | ≥ 74 | ≤ 0.17 | – |
| Nc1nc2nc[nH]c2c(=O)[nH]1 [guanine] | – | – | – | – | – | – | confirmed |

— patent US20240358625A1, “STABILIZATION OF MYCOSPORINE-LIKE AMINO ACIDS” (NAGASE & CO., LTD., priority 2021, published 2024)
